The results in this text go back to patent US20040001845A1, “Cytotoxic T-cell epitopes of HIV-1 virus” (priority 2002, published 2004).

The test system of this experiment is PBMC (HIV-1-specific CD8+ T cells) of subject AC-06. In words: IFN-γ Elispot assay of HIV-1-specific CD8+ T cell responses in subject AC-06. It counts as cell-based, human.
[1] abbreviates: subject AC-06, 0 months after infection.
Setting [2] is: subject AC-06, 2 months after infection.
[3] abbreviates: subject AC-06, 6 months after infection.
The mark [4] stands for this setting: subject AC-06, 12 months after infection.
Where [5] appears, read: subject AC-06, 18 months after infection.
Setting [6] is: subject AC-06, 20 months after infection.
[7] abbreviates: subject AC-06, 24 months after infection.
[8] abbreviates: subject AC-06, 29.5 months after infection.
[9] abbreviates: subject AC-06, 34 months after infection.

Turning to ERILSTYLGR [A3-ER10], the “magnitude of HIV-1-specific CD8+ T cell responses at the single epitope level” value (from here on “magnitude”) is on record as 0 SFC/Million PBMC under setting [1]; 0 SFC/Million PBMC under setting [2]; 0 SFC/Million PBMC under setting [3]; 0 SFC/Million PBMC under setting [4]; 0 SFC/Million PBMC under setting [5]; 0 SFC/Million PBMC under setting [6]. In addition, the “magnitude” value by setting is: under setting [7], 310 SFC/Million PBMC; under setting [8], 460 SFC/Million PBMC; under setting [9], 1300 SFC/Million PBMC.

Consider FPRIWLHGL [B7-FL9], for which the “magnitude” value came to 0 SFC/Million PBMC under setting [1]; 0 SFC/Million PBMC under setting [2]; 0 SFC/Million PBMC under setting [3]; 0 SFC/Million PBMC under setting [4]; 0 SFC/Million PBMC under setting [5]; 0 SFC/Million PBMC under setting [6]. The “magnitude” value is, setting by setting: under setting [7], 210 SFC/Million PBMC; under setting [8], 380 SFC/Million PBMC; under setting [9], 960 SFC/Million PBMC.

For GIPHPAGLK [A3-GK9], the “magnitude” value reads like this: under setting [1], 0 SFC/Million PBMC; under setting [2], 0 SFC/Million PBMC; under setting [3], 0 SFC/Million PBMC; under setting [4], 0 SFC/Million PBMC; under setting [5], 0 SFC/Million PBMC; under setting [6], 0 SFC/Million PBMC. The “magnitude” value under setting [7] was determined as 0 SFC/Million PBMC, the “magnitude” value under setting [8] was 240 SFC/Million PBMC and the “magnitude” value under setting [9] stood at 1800 SFC/Million PBMC.

On to HMYISKKAK [A3-HK9], for which the “magnitude” value was determined as 0 SFC/Million PBMC under setting [1]; 0 SFC/Million PBMC under setting [2]; 0 SFC/Million PBMC under setting [3]; 0 SFC/Million PBMC under setting [4]; 0 SFC/Million PBMC under setting [5]; 110 SFC/Million PBMC under setting [6]. Also, the “magnitude” value reads like this: under setting [7], 320 SFC/Million PBMC; under setting [8], 1000 SFC/Million PBMC; under setting [9], 1600 SFC/Million PBMC.

As to HPRVSSEVHI [B7-HI10], the “magnitude” value is recorded as 0 SFC/Million PBMC under setting [1]; 0 SFC/Million PBMC under setting [2]; 0 SFC/Million PBMC under setting [3]; 0 SFC/Million PBMC under setting [4]; 0 SFC/Million PBMC under setting [5]; 500 SFC/Million PBMC under setting [6]. For the same sequence, the “magnitude” value worked out at 880 SFC/Million PBMC under setting [7], 1800 SFC/Million PBMC under setting [8] and 1800 SFC/Million PBMC under setting [9].
